This is an account of results in patent publication US20260166017A1, “SARM1 INHIBITORS FOR USE IN THERAPY AND COSMETICS” (priority 2022, published 2026).

The subject of assay [1] is human dermal skin fibroblasts. Description: Cell death assay in human dermal skin fibroblasts (propidium iodide). It is filed as cell-based. The settings on record: high dose vacor (100 μM), 72 h vs DMSO. Here is the method:
(§1) Human primary myoblasts and human dermal skin fibroblasts were cultured following previously described protocols (Kisiel and Klar 2019; Rozwadowska et al. 2022). Drug treatment was started when cells reached the desired confluency. To visualise cell death, 1 μg/ml propidium iodide (PI) (Thermo Fisher Scientific) was added to the media at the same time of drug addition (Loreto et al. 2021). Phase contrast and fluorescence microscopy images were acquired on a DMi8 upright fluorescence microscope (Leica microsystems) coupled to a monochrome digital camera (Hamamatsu C4742-95). The objective used was HCXPL 20 X/0.40 CORR.

For assay [2], the system named is human primary myoblasts. Description: Cell death assay in human primary myoblasts (propidium iodide). The settings on record: high dose vacor (100 μM), 24 h vs DMSO. It is filed as cell-based. The protocol:
as §1

The test system of assay [3] is neuronal cultures. The settings on record: Loreto et al., 2021, Wu et al.; cited from earlier work.
Assay [4] relates to Human foetal DRG axons. The assay can be described thus: Axon degeneration and regeneration assay in human foetal DRGs in microfluidic chambers. The assay is classed as cell-based. The settings on record: 24 h after addition of 25 μM Vacor in the axonal compartment. The protocol: Human foetal DRG ganglia were dissected, dissociated and plated in microfluidic chambers (150 μm barrier, XONA Microfluidics) in 35 mm tissue culture dishes pre-coated with poly-L-lysine (100 μg/ml for 1 hr; Merck) and laminin (20 μg/ml for 1 hr; Merck) in Dulbecco's Modified Eagle's Medium (DMEM, Gibco) with 1% penicillin/streptomycin, 33 ng/ml 2.5 S NGF (all Invitrogen) and 2% B27 (Gibco). 4 μM aphidicolin (Merck) was used to reduce proliferation and viability of small numbers of non-neuronal cells. On DIV7, a difference of 100 μl of media between chambers was introduced and drugs were added to the compartment with the lower hydrostatic pressure. Phase contrast microscopy images were acquired on a DMi8 upright fluorescence microscope (Leica microsystems) coupled to a monochrome digital camera (Hamamatsu C4742-95). The objective used was HCXPL 20 X/0.40 CORR.

For assay [5], the target named is T1, SARM1 (Homo sapiens, UniProt Q6SZW1).
T1 sequence (Q6SZW1 28-724): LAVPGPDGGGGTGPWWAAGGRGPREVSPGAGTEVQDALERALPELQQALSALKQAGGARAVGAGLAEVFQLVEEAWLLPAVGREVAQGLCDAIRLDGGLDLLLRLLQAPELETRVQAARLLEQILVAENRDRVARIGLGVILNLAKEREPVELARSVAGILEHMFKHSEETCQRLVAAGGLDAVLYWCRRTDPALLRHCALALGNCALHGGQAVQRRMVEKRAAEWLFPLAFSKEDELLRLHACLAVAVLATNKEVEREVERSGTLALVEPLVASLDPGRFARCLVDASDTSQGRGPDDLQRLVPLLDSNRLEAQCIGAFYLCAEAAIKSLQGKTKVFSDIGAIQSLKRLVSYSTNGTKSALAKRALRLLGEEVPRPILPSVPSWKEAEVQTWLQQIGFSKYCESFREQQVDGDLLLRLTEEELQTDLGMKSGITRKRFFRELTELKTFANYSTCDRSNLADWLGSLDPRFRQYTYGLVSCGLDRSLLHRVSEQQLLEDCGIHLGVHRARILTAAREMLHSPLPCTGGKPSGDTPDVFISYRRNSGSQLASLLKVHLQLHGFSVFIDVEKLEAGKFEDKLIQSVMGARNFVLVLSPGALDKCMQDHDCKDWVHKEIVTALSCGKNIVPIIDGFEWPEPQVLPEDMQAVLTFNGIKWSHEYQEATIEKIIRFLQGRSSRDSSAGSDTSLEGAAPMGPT
The settings on record: Loreto et al., 2021; Angeletti et al., 2022; Wu et al.; cited from earlier work.

For assay [6], the system named is expanded mouse Schwann cells. Description: Cell death in expanded mouse Schwann cells passaged three times (phase contrast, propidium iodide). The assay is classed as cell-based. The settings on record: 100 μM vacor for 72 hours vs DMSO; Schwann cells passaged three times in proliferative medium. The protocol: Mouse SCs were passaged on PLL/laminin coated dishes in the presence of low serum (0.5% horse serum), 10 ng/ml Bneuregulin1 (BNRG1), and a low concentration cyclic adenosine monophosphate (CAMP) elevating signal, such as 2 μM forskolin or 100 μM dibutryl cAMP (Arthur-Farraj et al., 2011). Full protocol is described in (Mutschler et al., 2023).

For assay [7], the system named is freshly plated P2 mouse Schwann cells. The assay can be described thus: Cell death in freshly plated P2 mouse Schwann cells (propidium iodide, DAPI, SOX10). It is filed as cell-based. The settings on record: 100 μM vacor for 72 hours vs DMSO. Here is the method: Freshly plated mouse Schwann cells were obtained from P2 sciatic and brachial nerves. Nerves were digested with trypsin and collagenase, centrifuged and plated on laminin/Poly-L-lysine coated glass coverslips in defined medium as previously described (Arthur-Farraj et al., 2011).
Sciatic and optic nerves were dissected from Wt and Sarm1 KO mice and directly embedded in O.C.T. compound, without fixing, and stored at −80° C. until ready for cryosectioning. Cryosections at 5 μm thick were collected onto SuperFrost plus slides. These slides were post-fixed in 4% paraformaldehyde (PFA) at room temperature for 10 mins followed by three washes of 5 mins each with 1×PBS. The slides were then immersed in 100% methanol at −20° C. for 10 mins, followed by three washes of 5 mins each with 1×PBS. The slides were then blocked in 5% horse serum (HS)/0.2% Triton x-100/PBS for 30 mins at room temperature. Primary antibodies were diluted in blocking solution and slides were incubated overnight at 4° C. The following day, the slides were washed once for 5 mins with 1×PBS, twice for 5 mins with 0.1% tween/PBS and finally once again for 5 mins with 1×PBS before adding secondary antibodies. The corresponding secondary antibodies were diluted at 1:500 along with DAPI at 1:2000 for 2 hrs at room temperature and kept in the dark. […]

Structures are written as SMILES. Entries after “also recorded” stand apart in the source; their conditions may differ.

With `O=C(NCc1cccnc1)Nc1ccc([N+](=O)[O-])cc1` [vacor, Vacor], the “cell death by propidium iodide (P.I.) staining” value in assay [1] and in assay [2] was “completely insensitive; also recorded: no cell death occurs” each time. In assay [3], the “effect of high dose on neuronal cultures” value was “axonal degeneration and cell death within hours”. For the same compound, the DRG axon degeneration result in assay [4] is reported as “degenerate”. The “SARM1 activity on interaction with active site (TIR domain) for base exchange reaction” value in assay [5] was “modest increase in SARM1 activity”. Besides, the “cell death by propidium iodide (P.I.) staining and phase contrast” value in assay [6] is “susceptible to cellular dysfunction and death; also recorded: substantial increase in P.I. staining”. Besides, the “cell death judged by propidium iodide (P.I) and DAPI nuclear staining and SOX10 immunocytochemistry” value in assay [7] is “completely insensitive; also recorded: no cell death”.
